Measurements from US20240225973A1, “COSMETIC COMPOSITION FOR IMPROVING SENSITIVE SKIN” (LG HOUSEHOLD & HEALTH CARE LTD., priority 2023, published 2024).

Tested on: beta-defensin 2 (human β-defensin 2, hBD-2)
Experiment: beta-defensin 2 synthesis ELISA in cortisol-treated HaCaT cells
Type: cell-based
Design: change of beta-defensin 2 in skin cells: dose or concentration left out as unconfirmed
Conditions: for enhancement efficacy (beta-defensin 2 synthesis): single treatment at 1 ppm
Procedure: First, HaCaT, which is a human epidermal cell of the outermost layer among skin cells, was cultured using Dulbecco's Modified Eagle's Media (DMEM; Gibco, USA) mixed with 10% fetal bovine serum (FBS; Gibco, USA) and 1% antibiotic antimycotic (Gibco, USA) in a 24-well plate under conditions of 37° C. and 5% CO2. […] […] After 24 hours, the cells were treated with curcumin, taurine, and acetyl hexapeptide-8 at experimental concentrations, and cultured for 24 hours. At this time, curcumin, taurine, and acetyl hexapeptide-8 were treated alone, and the concentration of curcumin was fixed at 0.1 ppm and 1 ppm, and then taurine and acetyl hexapeptide-8 were treated in combination of concentrations, and cultured for 24 hours. 24 hours after treatment with each sample, ELISA was performed to quantify the amount of beta-defensin 2 (human β-defensin 2, hBD-2) protein synthesis. ELISA was performed using the HUMAN BETA DEFENSIN 2 ELISA kit (ALPHA DIAGNOSTIC, USA) and using the cell culture medium according to the kit's manual, and the final protein amount was calculated by measuring absorbance at 400 nm. […] At this time, when the amount thereof increased compared to the decrease due to cortisol, it was interpreted that the synthesis of beta-defensin 2 was increased by the sample. In addition, the synergistic effect between respective active substances that enhance beta-defensin 2 which had been reduced by cortisol was predicted through the Colby formula, and when the actual measured value was greater than the predicted value, it was determined that there was the synergistic effect.

[1] = Table 4: each substance at 1 ppm, alone or three cotreated, Cortisol (5 μM) = 100
[2] = single treatment 0.01 ppm, 24 h, HaCaT, cortisol group = 100
[3] = single treatment 0.1 ppm, 24 h, HaCaT, cortisol group = 100
[4] = single treatment 1 ppm, 24 h, HaCaT, cortisol group = 100

Row | Compound | Production amount of beta-defensin 2 (%) [1] | Production amount of beta-defensin 2 (%) [2] | Production amount of beta-defensin 2 (%) [3] | Production amount of beta-defensin 2 (%) [4] | enhancement efficacy (beta-defensin 2 synthesis) | Production amount of beta-defensin 2 (%) (single treatment 5 ppm, 24 h, HaCaT, cortisol group = 100) | Production amount of beta-defensin 2 (%) (single treatment 10 ppm, 24 h, HaCaT, cortisol group = 100) | change of beta-defensin 2 in skin cells (HaCaT, cultured for 24 hours)
1 | COc1cc(/C=C/C(=O)CC(=O)/C=C/c2ccc(O)c(OC)c2)ccc1O [Curcumin, curcumin] | 106.82% | 96.65% | 97.92% | 106.82% | confirmed |  |  | 
2 | NCCS(=O)(=O)O [Taurine, 2-aminoethanesulfonic acid] | 117.6% | 100.60% | 99.90% | 117.60% | confirmed | 87.61% | 83.06% | 
3 | C[C@]12CCC(=O)C=C1CC[C@@H]1[C@@H]2[C@@H](O)C[C@@]2(C)[C@H]1CC[C@]2(O)C(=O)CO [cortisol, hydrocortisone, reference compound] |  |  |  |  |  |  |  | significantly reduced
